This is an account of results in PubChem BioAssay AID330 (DTP/NCI, 2004).

The subject of this assay is P388 leukemia ip, CD2F1 mice, survival T/C. As to the kind of experiment: NCI In Vivo Anticancer Drug Screen. Data for tumor model P388 Leukemia (intraperitoneal) in CD2F1 (CDF1) mice. As to conditions: endpoint: median survival time, higher = longer survival. The method, boiled down: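 Mice carrying the transplanted tumor received test compound or vehicle. Survival was recorded in each group, and the value is the treated-group measurement divided by that of the vehicle-treated control group.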

Where [1] appears, read: dose: 50.0 mg/kg/injection, schedule: Q01DX009 (ip), vehicle: saline.
Setting [2] is: dose: 100.0 mg/kg/injection, schedule: Q01DX009 (ip), vehicle: saline.
Where [3] appears, read: dose: 200.0 mg/kg/injection, schedule: Q01DX009 (ip), vehicle: saline.
[4] abbreviates: dose: 60.0 mg/kg/injection, schedule: Q01DX005 (ip), vehicle: saline with Tween-80.
[5] abbreviates: dose: 50.0 mg/kg/injection, schedule: Q01DX009 (ip), vehicle: Klucel (hydroxypropylcellulose) (HPC).
The mark [6] stands for this setting: dose: 100.0 mg/kg/injection, schedule: Q01DX009 (ip), vehicle: Klucel (hydroxypropylcellulose) (HPC).
Setting [7] is: dose: 200.0 mg/kg/injection, schedule: Q01DX009 (ip), vehicle: Klucel (hydroxypropylcellulose) (HPC).
Where [8] appears, read: dose: 100.0 mg/kg/injection, schedule: Q01DX001 (ip), vehicle: saline with Tween-80.
Where [9] appears, read: dose: 200.0 mg/kg/injection, schedule: Q01DX001 (ip), vehicle: saline with Tween-80.
Where [10] appears, read: dose: 50.0 mg/kg/injection, schedule: Q01DX005 (ip), vehicle: saline with Tween-80.
The mark [11] stands for this setting: dose: 100.0 mg/kg/injection, schedule: Q01DX005 (ip), vehicle: saline with Tween-80.
Setting [12] is: dose: 200.0 mg/kg/injection, schedule: Q01DX005 (ip), vehicle: saline with Tween-80.

Where “and” joins values, the source holds several entries; their conditions need not be identical. Identical values can stand only once. Inconclusive results and toxic doses are left out. Peptide text beside a SMILES is read from it. * marks the point of attachment. Cbz = O=C(OCc1ccccc1)*

`COc1cccc2c1C(=O)c1c(O)c3c(c(O)c1C2=O)CC(O)(C(C)=O)CC3OC1CC(N=CN(C)C)C(O)C(C)O1` (stereo unspecified): the T/C is 103 % of control (dose: 3.13 mg/kg/injection, schedule: Q04DX003 (ip), vehicle: distilled water + Tween-80); 110 % of control (dose: 6.25 mg/kg/injection, schedule: Q04DX003 (ip), vehicle: distilled water + Tween-80); 99 % of control and 119 % of control (dose: 12.5 mg/kg/injection, schedule: Q04DX003 (ip), vehicle: distilled water + Tween-80); 123 % of control (dose: 50.0 mg/kg/injection, schedule: Q04DX003 (ip), vehicle: distilled water + Tween-80).

Take `O=S1(=O)CCN(Cc2cccnc2)CC1`: the T/C was 94 % of control under setting [1], 98 % of control under setting [2] and 91 % of control under setting [3].

For `Clc1ccc(C2=Nc3ccccc3SC(c3ccco3)C2)cc1Cl` (stereo unspecified), the T/C was 100 % of control (dose: 100.0 mg/kg/injection, schedule: Q04DX002 (ip), vehicle: saline with Tween-80); 96 % of control (dose: 200.0 mg/kg/injection, schedule: Q04DX002 (ip), vehicle: saline with Tween-80); 102 % of control (dose: 400.0 mg/kg/injection, schedule: Q04DX002 (ip), vehicle: saline with Tween-80).

Take `O=C1NC(=O)C(F)(F)C(O)N1` (stereo unspecified): the T/C (dose: 75.0 mg/kg/injection, schedule: Q04DX002 (ip), vehicle: saline) is 109 % of control; the T/C (dose: 100.0 mg/kg/injection, schedule: Q01DX009 (ip), vehicle: saline sonified) is 154 % of control; the T/C (dose: 150.0 mg/kg/injection, schedule: Q01DX009 (ip), vehicle: saline sonified) is 172 % of control; the T/C (dose: 150.0 mg/kg/injection, schedule: Q04DX002 (ip), vehicle: saline) was 109 % of control; the T/C (dose: 220.0 mg/kg/injection, schedule: Q01DX009 (ip), vehicle: saline sonified) is 177 % of control; the T/C (dose: 300.0 mg/kg/injection, schedule: Q04DX002 (ip), vehicle: saline) is 116 % of control. The T/C was 106 % of control (dose: 600.0 mg/kg/injection, schedule: Q04DX002 (ip), vehicle: saline) and 104 % of control (dose: 1200.0 mg/kg/injection, schedule: Q04DX002 (ip), vehicle: saline).

For the molecule `Cc1ccccc1C1OC2=C(Nc3ccccc3N2)C1=O` (stereo unspecified), the T/C is, setting by setting: (dose: 60.0 mg/kg/injection, schedule: Q01DX005 (ip), vehicle: Klucel (hydroxypropylcellulose) (HPC)) 99 % of control; (dose: 120.0 mg/kg/injection, schedule: Q01DX005 (ip), vehicle: Klucel (hydroxypropylcellulose) (HPC)) 101 % of control; (dose: 240.0 mg/kg/injection, schedule: Q01DX005 (ip), vehicle: Klucel (hydroxypropylcellulose) (HPC)) 92 % of control.

For the molecule `C[N+](C)=c1ccc2nc3c(cc(NCCCNc4cc5oc6cc(=[N+](C)C)ccc-6nc5c5ccccc45)c4ccccc43)oc-2c1`, the T/C by setting is: under setting [4], 106 % of control; (dose: 120.0 mg/kg/injection, schedule: Q01DX005 (ip), vehicle: saline with Tween-80) 113 % of control; (dose: 240.0 mg/kg/injection, schedule: Q01DX005 (ip), vehicle: saline with Tween-80) 103 % of control.

As for `Cc1ccc2c(c1)sc1nnc(Cl)n12`, the T/C was 100 % of control under setting [5], 94 % of control under setting [6] and 88 % of control under setting [7].

In the case of `C=CC(C)(C)C1Oc2cc(O)ccc2C(=O)C1c1ccc(OC)c(OC)c1O` (stereo unspecified), the T/C is 92 % of control (dose: 100.0 mg/kg/injection, schedule: Q04DX003 (ip), vehicle: Klucel (hydroxypropylcellulose) (HPC)); 100 % of control (dose: 200.0 mg/kg/injection, schedule: Q04DX003 (ip), vehicle: Klucel (hydroxypropylcellulose) (HPC)); 92 % of control (dose: 400.0 mg/kg/injection, schedule: Q04DX003 (ip), vehicle: Klucel (hydroxypropylcellulose) (HPC)).

In the case of `c1ccc2c(CC3NCCN3)cccc2c1`, the T/C by setting is: (dose: 6.25 mg/kg/injection, schedule: Q01DX009 (ip), vehicle: saline) 100 % of control; (dose: 12.5 mg/kg/injection, schedule: Q01DX009 (ip), vehicle: saline) 100 % of control; (dose: 25.0 mg/kg/injection, schedule: Q01DX009 (ip), vehicle: saline) 92 % of control.

Turning to `O=C1CNC(=O)c2cc(Cl)ccc2N1`, the T/C runs as follows: under setting [5], 103 % of control; under setting [6], 97 % of control; under setting [7], 100 % of control.

Take `CC(=O)OCC1=C(COC(C)=O)C(=O)c2cc3ccccc3cc2C1=O`: the T/C reads like this: (dose: 25.0 mg/kg/injection, schedule: Q01DX001 (ip), vehicle: saline with Tween-80) 92 % of control; (dose: 50.0 mg/kg/injection, schedule: Q01DX001 (ip), vehicle: saline with Tween-80) 92 % of control; under setting [8], 94 % of control; under setting [9], 101 % of control.

Consider `CN(C)C(=S)N1C(=O)C2C3CCC(O3)C2C1=O` (stereo unspecified), for which the T/C (dose: 1.87 mg/kg/injection, schedule: Q01DX005 (ip), vehicle: saline with Tween-80) is 102 % of control; the T/C (dose: 3.75 mg/kg/injection, schedule: Q01DX005 (ip), vehicle: saline with Tween-80) is 100 % of control; the T/C (dose: 7.5 mg/kg/injection, schedule: Q01DX005 (ip), vehicle: saline with Tween-80) is 99 % of control and 98 % of control.

Turning to `Cc1ncc(Cl)c2cc3ccccc3cc12`, the T/C was 101 % of control and 89 % of control under setting [1]; 99 % of control under setting [2]; 99 % of control and 94 % of control under setting [3].

On to `CN1NC(C2NN(C)C(=O)N(C)N2)NN(C)C1=O`, for which the T/C is, setting by setting: (dose: 50.0 mg/kg/injection, schedule: Q01DX005 (ip), vehicle: saline) 102 % of control; (dose: 100.0 mg/kg/injection, schedule: Q01DX005 (ip), vehicle: saline) 102 % of control; (dose: 200.0 mg/kg/injection, schedule: Q01DX005 (ip), vehicle: saline) 107 % of control.

As for `CC1(C)N=C(N)N=C(N)N1c1cccc(CCCCc2ccc(Cl)c(S(=O)(=O)F)c2)c1`, the T/C (dose: 9.33 mg/kg/injection, schedule: Q01DX009 (ip), vehicle: saline) is 118 % of control.

On to `O=C1C(CBr)(CBr)CCC12CN=C(Br)C2` (stereo unspecified), for which the T/C runs as follows: under setting [10], 100 % of control; under setting [11], 98 % of control; under setting [12], 100 % of control.

For `c1ccc(SCc2ccc3c(c2)OCO3)cc1`, the T/C (dose: 100.0 mg/kg/injection, schedule: Q01DX001 (ip), vehicle: Klucel (hydroxypropylcellulose) (HPC)) is 107 % of control; the T/C (dose: 200.0 mg/kg/injection, schedule: Q01DX001 (ip), vehicle: Klucel (hydroxypropylcellulose) (HPC)) was 102 % of control; the T/C (dose: 400.0 mg/kg/injection, schedule: Q01DX001 (ip), vehicle: Klucel (hydroxypropylcellulose) (HPC)) was 100 % of control.

With `CCOC(=O)C1C2CCC(O2)C1C#N` (stereo unspecified), the T/C is, setting by setting: (dose: 15.0 mg/kg/injection, schedule: Q01DX005 (ip), vehicle: saline with Tween-80) 100 % of control; (dose: 30.0 mg/kg/injection, schedule: Q01DX005 (ip), vehicle: saline with Tween-80) 101 % of control; under setting [4], 93 % of control.

As to `NC(=O)C1CCCN1C(=O)C(Cc1ccc(O)cc1)NC(=O)OCc1ccccc1` (stereo not drawn) (Cbz-Tyr-Pro-NH2; configuration not given here), the T/C under setting [10] is 104 % of control, the T/C under setting [11] was 97 % of control and the T/C under setting [12] is 94 % of control.

For the molecule `CCCCCCCCCCCCCCCCOc1ccc(OC)cc1C(=O)NNC(=S)SC`, the T/C was 100 % of control (dose: 50.0 mg/kg/injection, schedule: Q01DX009 (ip), vehicle: saline + alcohol); 103 % of control (dose: 100.0 mg/kg/injection, schedule: Q01DX009 (ip), vehicle: saline + alcohol); 87 % of control (dose: 200.0 mg/kg/injection, schedule: Q01DX009 (ip), vehicle: saline + alcohol).

In the case of `CCCNC(C)(C)C(SSSC(c1ccc(C(F)(F)F)cc1)C(C)(C)NCCC)c1ccc(C(F)(F)F)cc1` (stereo unspecified), the T/C reads like this: under setting [8], 100 % of control; under setting [9], 104 % of control; (dose: 400.0 mg/kg/injection, schedule: Q01DX001 (ip), vehicle: saline with Tween-80) 100 % of control.

With `O=S(=O)(OCCCl)c1cc(Cl)c(Cl)cc1Cl`, the T/C is 105 % of control (dose: 50.0 mg/kg/injection, schedule: Q01DX005 (ip), vehicle: Klucel (hydroxypropylcellulose) (HPC)); 114 % of control (dose: 100.0 mg/kg/injection, schedule: Q01DX005 (ip), vehicle: Klucel (hydroxypropylcellulose) (HPC)); 90 % of control (dose: 200.0 mg/kg/injection, schedule: Q01DX005 (ip), vehicle: Klucel (hydroxypropylcellulose) (HPC)).
